In US6794402B2, “Bicyclic cyclohexylamines and their use as NMDA receptor antagonists” (Warner-Lambert Company, priority 2000, dated 2004):

Target: T1, [3H]ifenprodil binding site, rat forebrain membranes (Rattus norvegicus, UniProt P35439+Q00960)
T1 construct: membrane fraction was prepared from frozen adult rat forebrains; tissue Zivic-Miller Laboratories, Inc; host or cells: adult rat forebrain, washed buffy coat membrane fraction
Test: [3H]Ifenprodil binding assay
Settings: 4 nM [3H]-ifenprodil, 2 hours at room temperature
Procedure: All buffers and reagents used in assay incubations or to dissolve drugs were prepared using water purified through a Milli-Q reverse osmosis system (Millipore Corp, Bedford, Mass.) and treated with UV emissions. Prior to use in the assays, buffers were further filtered through a sterile Corning filtration unit (Corning Glass Works, Corning, N.Y.) containing a 0.2-micron filter. Buffer used to rinse the membranes on the assay filters was prepared with purified water, but was not refiltered and was stored no longer than 5 days. Stock solutions of the drugs (usually 10 mM) were dissolved in 20 mM HEPES-KOH buffer pH 7.4 (assay buffer) with the addition of 1 to 5 μL of glacial AcOH, if needed to keep them in solution. For eliprodil the stock solution was buffered with the addition of 10% DMSO. All subsequent dilutions from stock were made in buffer.
An extensively washed buffy coat membrane fraction was prepared from frozen adult rat forebrains (Zivic-Miller Laboratories, Inc., Zelienople, Pa.) as described previously (Coughenour L. L., Cordon, J. J., J. Pharmacol. Exp. Ther., 1997;280:584-592) and stored at −80° C. On the day of the assay, pellets were resuspended in 35 mL of assay buffer at pH 7.4 using a Polytron setting 6. After incubation at 37° C. for 30 minutes in a shaking water bath, the homogenate was centrifuged 40,000×g for 10 minutes at 4° C. The pellets were resuspended in fresh buffer and centrifuged 3 more times before final suspension for use in the assay.
[^3H]Ifenprodil Binding. Triplicate incubations were carried out in a volume of 0.5 mL in 1.3 mL polypropylene tubes (Marsh Biomedical Products Inc., Rochester, N.Y.) for 2 hours at room temperature. Incubations contained test agents, membranes (100-200 μg protein) and 4 nM[^3H]-ifenprodil in 20 mM HEPES-KOH buffer, pH 7.4 (assay buffer). Assays were started by addition of the membranes. Bound radioligand was separated by filtration under reduced pressure using a Tomtec Mach II, 96-well cell harvester (Tomtec Inc., Orange, Colo.). Filtration was through Whatman GF/B glass fiber filters (Whatman Ltd, Maidstone, England), which had been soaked for at least 15 minutes in 0.3% polyethylenimine and allowed to air dry. The filters were rinsed with 3 mL of ice cold assay buffer within 6 seconds. Air was allowed to pass through the filters for an additional 10 seconds to remove residual moisture. The filter mat was supported on a cold (−20° C.) teflon support, and filters from individual wells were separated and placed in Mini Poly-Q vials (Beckman Instruments Inc., Fullerton, Calif.) and filled with 4 mL of scintillation cocktail (Beckman Ready Protein^+). Radioactivity retained on the filter was determined by liquid scintillation spectrophotometry. Nonspecific binding was defined as the binding in the presence of 1 mM ifenprodil. Specific binding was 90%.
Data analysis. Binding curves were statistically analyzed for a best one or two site competition fit using GraphPad Prism software (GraphPad Software Inc., San Diego, Calif.). The normalized data was fit by nonweighted nonlinear regression to either [formula]
Control data was entered as 100%, and no parameters were constrained. Inhibition curves were compared by ANOVA with post test comparisons of the logIC50 using Dunnett's multiple comparisons post test or Student's nonpaired, two-tailed t-test (GraphPad InStat software).

T1 sequence (Q00960 27-1482, other chains not shown): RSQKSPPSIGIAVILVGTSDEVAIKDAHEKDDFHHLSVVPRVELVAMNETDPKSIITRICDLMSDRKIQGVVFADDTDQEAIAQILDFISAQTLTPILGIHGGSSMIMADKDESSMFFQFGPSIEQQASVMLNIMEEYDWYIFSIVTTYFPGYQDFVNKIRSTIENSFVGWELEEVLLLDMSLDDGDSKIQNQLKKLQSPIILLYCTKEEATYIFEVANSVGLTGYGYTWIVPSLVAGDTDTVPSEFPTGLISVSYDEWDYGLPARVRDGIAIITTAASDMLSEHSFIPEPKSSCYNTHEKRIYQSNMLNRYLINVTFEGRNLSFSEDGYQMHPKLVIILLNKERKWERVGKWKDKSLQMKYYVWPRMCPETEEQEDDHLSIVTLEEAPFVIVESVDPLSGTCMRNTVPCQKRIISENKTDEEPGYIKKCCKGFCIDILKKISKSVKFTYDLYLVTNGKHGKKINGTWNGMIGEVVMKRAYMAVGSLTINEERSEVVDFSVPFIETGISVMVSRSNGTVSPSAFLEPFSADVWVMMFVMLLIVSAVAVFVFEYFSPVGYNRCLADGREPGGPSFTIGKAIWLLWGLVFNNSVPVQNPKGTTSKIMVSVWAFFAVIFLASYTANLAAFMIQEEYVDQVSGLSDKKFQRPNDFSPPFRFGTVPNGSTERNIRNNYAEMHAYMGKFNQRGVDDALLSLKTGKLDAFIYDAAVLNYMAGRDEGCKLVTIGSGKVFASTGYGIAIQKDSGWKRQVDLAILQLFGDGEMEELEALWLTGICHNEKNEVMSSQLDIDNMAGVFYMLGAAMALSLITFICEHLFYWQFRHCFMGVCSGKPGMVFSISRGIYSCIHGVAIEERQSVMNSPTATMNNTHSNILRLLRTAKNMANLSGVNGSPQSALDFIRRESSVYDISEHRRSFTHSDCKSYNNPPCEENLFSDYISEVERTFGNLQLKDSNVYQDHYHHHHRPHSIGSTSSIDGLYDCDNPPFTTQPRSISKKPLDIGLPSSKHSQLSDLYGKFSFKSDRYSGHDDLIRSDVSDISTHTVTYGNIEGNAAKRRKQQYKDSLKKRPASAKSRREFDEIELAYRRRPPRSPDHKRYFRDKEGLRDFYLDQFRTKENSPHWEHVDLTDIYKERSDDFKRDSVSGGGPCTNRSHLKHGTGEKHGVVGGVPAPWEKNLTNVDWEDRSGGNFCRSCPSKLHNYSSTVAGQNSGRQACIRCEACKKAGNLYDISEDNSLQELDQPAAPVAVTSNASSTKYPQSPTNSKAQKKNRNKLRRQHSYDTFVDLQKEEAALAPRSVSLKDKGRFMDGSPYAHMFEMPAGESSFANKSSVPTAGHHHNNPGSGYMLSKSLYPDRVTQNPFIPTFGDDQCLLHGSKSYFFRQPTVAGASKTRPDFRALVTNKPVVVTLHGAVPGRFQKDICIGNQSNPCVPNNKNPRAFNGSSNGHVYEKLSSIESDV

IC50	Compound
> 1000 nM	CCC[C@@H](CSc1ccc(F)cc1)N(CC)[C@H]1CC[C@H](c2ccc3[nH]c(=O)oc3c2)CC1 [Example 36b, (S)-6-{trans-4-[Ethyl(1-(4-fluorophenylsulfanyl)pentan-2-yl)amino]-cyclohexyl}-3H-benzoxazol-2-one]
29 nM	CN(CCCc1ccc(F)c(F)c1)[C@H]1CC[C@H](c2ccc3[nH]c(=O)oc3c2)CC1 [Example 40b, 6-(trans-4-{[3-(3,4-Difluorophenyl)propyl]methylamino}cyclohexyl)-3H-benzoxazol-2-one]
22 nM	CN(CCCC1CCCCC1)[C@H]1CC[C@H](c2ccc3[nH]c(=O)oc3c2)CC1 [Example 49b, 6-{trans-4-[(3-Cyclohexylpropyl)methylamino]cyclohexyl}-3H-benzoxazol-2-one]
3 nM	CN(CCCc1ccsc1)[C@H]1CC[C@H](c2ccc3[nH]c(=O)oc3c2)CC1 [Example 52b, 6-[trans-4-{[3-(3-Thiophen-3-yl)propyl]methylamino}cyclohexyl)-3H-benzoxazol-2-one]
7 nM	CN(CCCc1ccc(Cl)cc1)[C@H]1CC[C@H](c2ccc3[nH]c(=O)oc3c2)CC1 [Example 38b, 6-(trans-4-{[3-(4-Chlorophenyl)propyl]methylamino}cyclohexyl)-3H-benzoxazol-2-one]
37 nM	CN(CCCc1cc(F)cc(F)c1)[C@H]1CC[C@H](c2ccc3[nH]c(=O)oc3c2)CC1 [Example 39b, 6-(trans-{[3-(3,5-Difluorophenyl)propyl]methylamino}cyclohexyl)-3H-benzoxazol-2-one]
20 nM	Cc1c(F)cccc1CCCN(C)[C@H]1CC[C@H](c2ccc3[nH]c(=O)oc3c2)CC1 [Example 48b, 6-(trans-4-{[3-(3-Fluoro-2-methylphenyl)propyl]methylamino}cyclohexyl)-3H-benzoxazol-2-one]
12 nM	CN(CCCc1ccc(F)cc1)[C@H]1CC[C@H](c2ccc3[nH]c(=O)sc3c2)CC1 [Example 61b, 6-(trans-4-{[3-(4-Fluorophenyl)propyl]methylamino}cyclohexyl)-3H-benzthiazol-2-one]
7 nM	CN(CCCc1ccc(F)cc1Cl)[C@H]1CC[C@H](c2ccc3[nH]c(=O)oc3c2)CC1 [Example 44b, 6-(trans-4-{[3-(2-Chloro-4-fluorophenyl)propyl]methylamino}cyclohexyl)-3H-benzoxazol-2-one]
980 nM	O=C(NCCNC1CCC(c2ccc3[nH]c(=O)oc3c2)CC1)c1ccccc1 (mixture of isomers) [Example 42b, N-{2-[4-(2-Oxo-2,3-dihydrobenzoxazol-6-yl)cyclohexylamino]ethyl}-benzamide]
15 nM	CN(CCCc1cccc(F)c1)[C@H]1CC[C@H](c2ccc3[nH]c(=O)oc3c2)CC1 [Example 47b, 6-(trans-4-{[3-(3-Fluorophenyl)propyl]methylamino}cyclohexyl)-3H-benzoxazol-2-one]
7 nM	CN(CCCc1ccc(Cl)cc1F)[C@H]1CC[C@H](c2ccc3[nH]c(=O)oc3c2)CC1 [Example 45b, 6-(trans-4-{[3-(4-Chloro-2-fluorophenyl)propyl]methylamino}cyclohexyl)-3H-benzoxazol-2-one]
351 nM	CC(Cc1ccccc1)CN(C)[C@H]1CC[C@H](c2ccc3[nH]c(=O)oc3c2)CC1 (stereo partly drawn) [Example 50b, 6-(trans-{4-[Methyl(2-methyl-3-phenylpropyl)amino]cyclohexyl})-3H-benzoxazol-2-one]

The next lines start with the compound.

Compound	IC50
COc1cc2[nH]c(=O)oc2cc1[C@H]1CC[C@H](N(C)CCCc2ccc(F)cc2)CC1 [Example 65, 6-(trans-4-{[3-(4-Fluorophenyl)propyl]methylamino}cyclohexyl)-5-methoxy-3H-benzoxazol-2-one]	67 nM
CN(CCCc1c(F)cc(F)cc1F)[C@H]1CC[C@H](c2ccc3[nH]c(=O)oc3c2)CC1 [Example 57, 6-(trans-4-{[3-(2,4,6-Trifluorophenyl)propyl]methylamino}cyclohexyl)-3H-benzoxazol-2-one]	6 nM
CN(CCCc1ccc(Cl)cc1Cl)[C@H]1CC[C@H](c2ccc3[nH]c(=O)oc3c2)CC1 [Example 54, 6-(trans-4-{[3-(2,4-Dichlorophenyl)propyl]methylamino}cyclohexyl)-3H-benzoxazol-2-one]	34 nM
CCN([C@H]1CC[C@H](c2ccc3[nH]c(=O)oc3c2)CC1)[C@@H](C)CCc1ccccc1 [Example 28, 6-(trans-4-{Ethyl-[(S)-1-methyl-3-phenylpropyl]amino}cyclohexyl)-3H-benzoxazol-2-one]	184 nM
O=c1[nH]c2ccc([C@H]3CC[C@H](N(CCCc4ccc(F)cc4)CC4CC4)CC3)cc2o1 [Example 30, 6-(trans-4-{Cyclopropylmethyl-[3-(4-fluorophenyl)propyl]amino}cyclohexyl)-3H-benzoxazol-2-one]	219 nM
O=c1[nH]c2ccc([C@H]3CC[C@@H](NCCSc4ccccc4)CC3)cc2o1 [Example 5b, 6-[cis-4-(2-Phenylsulfanylethylamino)cyclohexyl]-3H-benzoxazol-2-one]	21 nM
CCN([C@H]1CC[C@H](c2ccc3[nH]c(=O)oc3c2)CC1)[C@H](C)CCc1ccccc1 [Example 27, 6-(trans-4-{Ethyl-[(R)-1-methyl-3-phenylpropyl]amino}cyclohexyl)-3H-benzoxazol-2-one]	132 nM
O=c1[nH]c2ccc([C@H]3CC[C@H](NCCCc4ccc(C(F)(F)F)cc4)CC3)cc2o1 [Example 14, 6-{trans-4-[3-(4-Trifluoromethylphenyl)propylamino]cyclohexyl}-3H-benzoxazol-2-one]	128 nM
CN(CCN(C)[C@H]1CC[C@H](c2ccc3[nH]c(=O)oc3c2)CC1)c1ccccc1 [Example 60, 6-(trans-4-{Methyl-[2-(Methylphenylamino)ethyl]amino}cyclohexyl)-3H-benzoxazol-2-one]	> 1000 nM
O=c1[nH]c2ccc([C@H]3CC[C@H](N(CCCc4ccc(F)cc4)Cc4ccoc4)CC3)cc2o1 [Example 31, 6-(trans-4-{[3-(4-Fluorophenyl)propyl]furan-3-ylmethylamino}cyclohexyl)-3H-benzoxazol-2-one]	465 nM
O=c1[nH]c2ccc([C@H]3CC[C@H](N(CCO)CCCc4ccc(F)cc4)CC3)cc2o1 [Example 29, 6-{trans-4-[[3-(4-Fluorophenyl)propyl]-(2-hydroxyethyl)amino]cyclohexyl}-3H-benzoxazol-2-one]	18 nM
NCCN(CCCc1ccc(F)cc1)[C@H]1CC[C@H](c2ccc3[nH]c(=O)oc3c2)CC1 [Example 35, 6-(trans-4-{(2-Aminoethyl)-[3-(4-fluorophenyl)propyl]amino}cyclohexyl)-3H-benzoxazol-2-one]	170 nM
CCN(CCCc1ccc(C(F)(F)F)cc1)[C@H]1CC[C@H](c2ccc3[nH]c(=O)oc3c2)CC1 [Example 26]	188 nM
CC(C)Cc1ccc(CCCN(C)[C@H]2CC[C@H](c3ccc4[nH]c(=O)oc4c3)CC2)cc1 [Example 56, 6-(trans-4-{[3-(4-Isobutylphenyl)propyl]methylamino}cyclohexyl)-3H-benzoxazol-2-one]	71 nM
O=c1[nH]c2ccc([C@H]3CC[C@H](NCCCc4ccc(F)cc4)CC3)cc2[nH]1 [Example 62, 5-{trans-4-[3-(4-Fluorophenyl)propylamino]cyclohexyl}-1,3-dihydrobenzoimidazol-2-one]	17 nM
CC(C)CN(CCCc1ccc(F)cc1)[C@H]1CC[C@H](c2ccc3[nH]c(=O)oc3c2)CC1 [Example 33, 6-(trans-4-{[3-(4-Fluorophenyl)propyl]isobutylamino}cyclohexyl)-3H-benzoxazol-2-one]	> 1000 nM
Cc1cc2[nH]c(=O)oc2cc1[C@H]1CC[C@H](N(C)CCCc2ccc(F)cc2)CC1 [Example 64, 6-(4-{[3-(4-Fluorophenyl)propyl]methyl-amino}cyclohexyl)-5-methyl-3H-benzoxazol-2-one]	45 nM
C=CCN(CCCc1ccc(F)cc1)[C@H]1CC[C@H](c2ccc3[nH]c(=O)oc3c2)CC1 [Example 32, 6-(trans-4-{Allyl-[3-(4-fluorophenyl)propyl]amino}cyclohexyl)-3H-benzoxazol-2-one]	158 nM
